# Laboratory results reported in article PMC8119466, “A screen of FDA-approved drugs identifies inhibitors of protein tyrosine phosphatase 4A3 (PTP4A3 or PRL-3)” (Scientific Reports, 2021).
# Counter-ions that a name gives are not always drawn.
# Assays:
# Assay type in all cases: biochemical
# Conditions in all cases: FDA-approved drug screen
# recombinant PRL-1 = molecular target: T1, recombinant PRL-1 (Homo sapiens, UniProt Q93096); experiment: In vitro phosphatase assay (DiFMUP hydrolysis), PRL-1; further: test concentration or dose not given here
# T1 construct: 6xHis (N, cleaved yes); made in house; host or cells: E. coli One Shot BL21 Star
# T1 sequence (Q93096 1-173): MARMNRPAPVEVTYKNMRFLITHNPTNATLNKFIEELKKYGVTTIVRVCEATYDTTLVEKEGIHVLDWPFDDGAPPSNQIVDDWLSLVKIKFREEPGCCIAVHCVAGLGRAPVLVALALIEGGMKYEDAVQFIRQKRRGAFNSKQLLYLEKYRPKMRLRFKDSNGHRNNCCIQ
# recombinant PRL-2 = molecular target: T2, recombinant PRL-2 (Homo sapiens, UniProt Q12974); experiment: In vitro phosphatase assay (DiFMUP hydrolysis), PRL-2;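 further: PRL-2 activity read as DiFMUP hydrolysis after 20 min at room temperature with drug, enzyme first pre-reduced at 4 °C for 20 min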
# T2 construct: 6xHis (N, cleaved yes); made in house; host or cells: E. coli One Shot BL21 Star
# T2 sequence (Q12974 1-167): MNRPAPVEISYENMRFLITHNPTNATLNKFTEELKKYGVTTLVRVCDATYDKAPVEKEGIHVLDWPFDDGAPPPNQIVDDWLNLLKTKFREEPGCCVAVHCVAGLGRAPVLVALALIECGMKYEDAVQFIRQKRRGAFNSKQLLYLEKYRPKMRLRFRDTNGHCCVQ
# recombinant PRL-3 = molecular target: T3, recombinant PRL-3 (Homo sapiens, UniProt O75365); experiment: In vitro phosphatase assay (DiFMUP hydrolysis), PRL-3; further: test concentration or dose not given here
# T3 construct: 6xHis (N, cleaved yes); made in house; host or cells: E. coli One Shot BL21 Star
# T3 sequence (O75365 whole entry): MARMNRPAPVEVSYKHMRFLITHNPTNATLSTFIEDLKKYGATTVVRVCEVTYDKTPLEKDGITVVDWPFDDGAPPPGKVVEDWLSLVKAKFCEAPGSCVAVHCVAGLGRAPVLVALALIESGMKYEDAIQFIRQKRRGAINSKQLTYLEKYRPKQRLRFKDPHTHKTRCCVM
Compound,% Phosphatase Activity (compared to DMSO) PRL-1 (recombinant PRL-1; compared to DMSO),% Phosphatase Activity (compared to DMSO) PRL-2 (recombinant PRL-2; compared to DMSO),% Phosphatase Activity (compared to DMSO) PRL-3 (recombinant PRL-3; compared to DMSO),% Phosphatase Activity (compared to DMSO) PRL-1 (recombinant PRL-1; activity compared to DMSO),% Phosphatase Activity (compared to DMSO) PRL-2 (recombinant PRL-2; activity compared to DMSO),% Phosphatase Activity (compared to DMSO) PRL-3 (recombinant PRL-3; activity compared to DMSO)
C#C[C@]1(O)CC[C@H]2[C@@H]3CCC4=CC(=O)CC[C@@H]4[C@H]3C(=C)C[C@@]21CC [Etonogestrel],90%,85%,80%,–,–,–
CCOC(=O)C1=C(C)NC(C)=C(C(=O)OCC)C1c1ccccc1/C=C/C(=O)OC(C)(C)C [Lacidipine],232%,329%,172%,–,–,–
CC[C@H](NC(=O)[C@H](C)NC)C(=O)N1C[C@@H](O)C[C@H]1Cc1c(-c2[nH]c3cc(F)ccc3c2C[C@@H]2C[C@H](O)CN2C(=O)[C@H](CC)NC(=O)[C@H](C)NC)[nH]c2cc(F)ccc12 [Birinapant],138%,129%,138%,–,–,–
O=C1Nc2ccc(Cl)cc2[C@@](C#CC2CC2)(C(F)(F)F)O1 [Efavirenz],87%,72%,97%,–,–,–
Cl.Nc1c(Br)cc(Br)cc1CN[C@H]1CC[C@H](O)CC1 [Ambroxol HCl],105%,117%,98%,–,–,–
CC[C@@H]([C@H](C)O)n1ncn(-c2ccc(N3CCN(c4ccc(OC[C@@H]5CO[C@@](Cn6cncn6)(c6ccc(F)cc6F)C5)cc4)CC3)cc2)c1=O [Posaconazole],89%,99%,73%,–,–,–
O=C(/C=C/C=C/c1ccc2c(c1)OCO2)N1CCCCC1 [Piperine],125%,119%,106%,–,–,–
OCC(CO)N[C@H]1C[C@](O)(CO)[C@@H](O)[C@H](O)[C@H]1O [Voglibose],–,–,–,98%,104%,75%
CN1C(C(=O)Nc2ccccn2)=C(O)c2sccc2S1(=O)=O [Tenoxicam],–,–,–,92%,75%,71%
CCCCC(=O)O[C@]1(C(=O)CO)[C@@H](C)C[C@H]2[C@@H]3CCC4=CC(=O)C=C[C@]4(C)[C@@]3(F)[C@@H](O)C[C@@]21C [Betamethasone valerate (Betnovate)],97%,83%,79%,–,–,–
O=C(CCCN1CCN(c2ccccn2)CC1)c1ccc(F)cc1 [Azaperone],96%,96%,88%,–,–,–
Cc1cccn2c(=O)c(-c3nnn[nH]3)cnc12 [Pemirolast potassium],330%,301%,195%,–,–,–
CC(CN1c2ccccc2Sc2ccccc21)N(C)C.Cl (stereo not drawn) [Promethazine HCl],99%,106%,77%,–,–,–
C1=N/C2=N/c3ccc(OCCN4CCCC4)c(c3)COC/C=C/COCc3cccc(c3)C(=C1)N2 [Pacritinib (SB1518)],95%,98%,78%,–,–,–
CCC[C@@H]1C[C@@H](C(=O)N[C@@H]([C@H]2O[C@H](SC)[C@H](O)[C@@H](O)[C@H]2O)[C@@H](C)O)N(C)C1 [Lincomycin HCl],109%,111%,76%,–,–,–
O=C[C@H](O)[C@@H](O)[C@H](O)CO [Xylose],–,–,–,115%,102%,68%

Compound,% Phosphatase Activity (compared to DMSO) PRL-1 (recombinant PRL-1; compared to DMSO),% Phosphatase Activity (compared to DMSO) PRL-2 (recombinant PRL-2; compared to DMSO),% Phosphatase Activity (compared to DMSO) PRL-3 (recombinant PRL-3; compared to DMSO),% Phosphatase Activity (compared to DMSO) PRL-1 (recombinant PRL-1; activity compared to DMSO),% Phosphatase Activity (compared to DMSO) PRL-2 (recombinant PRL-2; activity compared to DMSO),% Phosphatase Activity (compared to DMSO) PRL-3 (recombinant PRL-3; activity compared to DMSO)
Cc1ccc(C(=O)C(C)CN2CCCCC2)cc1.Cl (stereo not drawn) [Tolperisone HCl],–,–,–,91%,108%,71%
Nc1nc(N)c2nc(-c3ccccc3)c(N)nc2n1 [Triamterene],–,–,–,7090%,6324%,3828%
CO[C@H]1/C=C/O[C@@]2(C)Oc3c(C)c(O)c4c(c3C2=O)C2=NC3(CCN(CC(C)C)CC3)NC2=C(NC(=O)/C(C)=C\C=C\[C@H](C)[C@H](O)[C@@H](C)[C@@H](O)[C@@H](C)[C@H](OC(C)=O)[C@@H]1C)C4=O [Rifabutin],61%,63%,72%,–,–,–
CCOC(=O)C1=C(C)NC(C)=C(C(=O)OC)C1c1cccc(Cl)c1Cl (stereo not drawn) [Felodipine],161%,227%,132%,–,–,–
Cc1ccc(=O)n(-c2ccccc2)c1 [Pirfenidone],114%,137%,97%,–,–,–
C[C@H](CCC(=O)O)[C@H]1CC[C@H]2[C@@H]3CC[C@@H]4C[C@H](O)CC[C@]4(C)[C@H]3CC[C@]12C [Lithocholic acid],82%,75%,73%,–,–,–
O=C1CCc2ccc(OCCCCN3CCN(c4cccc(Cl)c4Cl)CC3)cc2N1 [Aripiprazole],100%,111%,103%,–,–,–
CC(=O)N[C@H]1[C@H]([C@H](O)[C@H](O)CO)OC(C(=O)O)=C[C@@H]1N=C(N)N [Zanamivir],–,–,–,90%,98%,115%
OC(CCCN1CCCCC1)(c1ccccc1)c1ccccc1 [Diphenidol HCl],102%,115%,89%,–,–,–
CCC(=O)OCC(=O)[C@@]1(OC(=O)CC)[C@@H](C)C[C@H]2[C@@H]3CCC4=CC(=O)C=C[C@]4(C)[C@@]3(Cl)[C@@H](O)C[C@@]21C [Beclomethasone dipropionate],98%,91%,90%,–,–,–
GHRP-2,98%,102%,100%,–,–,–
"COc1cc2ncnc(Nc3ccc(F)c(Cl)c3)c2cc1NC(=O)/C=C/CN1CCCCC1 [Dacomitinib (PF299804, PF299)]",145%,147%,120%,–,–,–
Cc1c(NC(=O)c2cccnc2)c(=O)n(-c2ccccc2)n1C [Nifenazone],91%,105%,92%,–,–,–
COc1cc2c(cc1OC)CC(=O)N(CCCN(C)C[C@H]1Cc3cc(OC)c(OC)cc31)CC2.Cl [Ivabradine HCl],108%,113%,71%,–,–,–
COc1ccc(C(=O)CC(=O)c2ccc(C(C)(C)C)cc2)cc1 [Avobenzone],93%,68%,87%,–,–,–
C[N+]1(C)[C@@H]2C[C@@H](OC(=O)[C@H](CO)c3ccccc3)C[C@H]1[C@@H]1O[C@@H]12 [Methscopolamine],86%,107%,88%,–,–,–
